Assay results reported in ChEMBL document CHEMBL3886282, “N-myristoyl transferase inhibitors” (2015).

Tests used:
[1] = target: T1, Glycylpeptide N-tetradecanoyltransferase 1 (Homo sapiens, UniProt P30419); assay: Enzyme Inhibition Assay: Measurements were performed using a modification of the scintillation proximity assay platform described previously by Georgopapadakou, N. H. et al. (22nd International Congress on Chemotherapy, 2001, Abstract P16.001). Compounds were solubilised in DMSO at a top concentration of 10 mM and serially diluted in half log steps to achieve a range of final assay concentrations …
T1 sequence (P30419 whole entry): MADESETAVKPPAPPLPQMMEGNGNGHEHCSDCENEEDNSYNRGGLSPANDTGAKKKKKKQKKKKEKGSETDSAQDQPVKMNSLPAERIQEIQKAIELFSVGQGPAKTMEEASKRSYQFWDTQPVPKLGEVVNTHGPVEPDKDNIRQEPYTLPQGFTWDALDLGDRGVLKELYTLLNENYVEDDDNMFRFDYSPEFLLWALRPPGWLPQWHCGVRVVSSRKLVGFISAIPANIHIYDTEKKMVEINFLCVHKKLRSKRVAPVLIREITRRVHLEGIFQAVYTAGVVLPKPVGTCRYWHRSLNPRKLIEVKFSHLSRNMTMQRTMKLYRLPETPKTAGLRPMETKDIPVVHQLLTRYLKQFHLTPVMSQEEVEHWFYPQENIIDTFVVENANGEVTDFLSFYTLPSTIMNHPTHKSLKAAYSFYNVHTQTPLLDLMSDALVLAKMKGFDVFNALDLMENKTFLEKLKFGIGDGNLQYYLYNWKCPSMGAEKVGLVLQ

[2] = target: T2, Glycylpeptide N-tetradecanoyltransferase (Leishmania major, UniProt Q4Q5S8); assay: as above
T2 sequence (Q4Q5S8 whole entry): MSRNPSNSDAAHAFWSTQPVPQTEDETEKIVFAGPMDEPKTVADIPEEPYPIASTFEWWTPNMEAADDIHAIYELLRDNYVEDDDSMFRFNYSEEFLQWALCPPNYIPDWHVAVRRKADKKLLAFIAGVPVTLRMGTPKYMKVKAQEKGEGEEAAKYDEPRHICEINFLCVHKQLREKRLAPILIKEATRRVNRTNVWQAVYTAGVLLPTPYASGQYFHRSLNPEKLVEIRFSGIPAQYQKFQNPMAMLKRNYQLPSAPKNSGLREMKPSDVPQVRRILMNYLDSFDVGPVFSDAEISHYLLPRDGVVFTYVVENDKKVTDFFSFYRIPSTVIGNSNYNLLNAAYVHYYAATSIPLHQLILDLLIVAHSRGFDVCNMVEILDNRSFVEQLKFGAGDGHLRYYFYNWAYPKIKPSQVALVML

## Cc1nn(C)c(C)c1N(C(F)F)S(=O)(=O)c1c(Cl)cc(CCCOC2CC(C)(C)N(C)C(C)(C)C2)cc1Cl
[1]
  IC50: > 1 µM
[2]
  IC50: 0.04 µM

## Cc1nn(C)c(C)c1N(C(F)F)[S+](=O)([O-])c1c(Cl)cc(Br)cc1Cl
[1]
  IC50: > 1 µM
[2]
  IC50: > 1 µM
